Each structure is given as a SMILES string.

This passage reports IC50 results from paper PMC5640798 (Synthetic and Systems Biotechnology, 2016).

For this assay, the target named is hERG potassium channel (Homo sapiens, UniProt Q12809). Description: hERG channel inhibition test. The format is cell-based.
hERG potassium channel, sequence (Q12809 whole entry): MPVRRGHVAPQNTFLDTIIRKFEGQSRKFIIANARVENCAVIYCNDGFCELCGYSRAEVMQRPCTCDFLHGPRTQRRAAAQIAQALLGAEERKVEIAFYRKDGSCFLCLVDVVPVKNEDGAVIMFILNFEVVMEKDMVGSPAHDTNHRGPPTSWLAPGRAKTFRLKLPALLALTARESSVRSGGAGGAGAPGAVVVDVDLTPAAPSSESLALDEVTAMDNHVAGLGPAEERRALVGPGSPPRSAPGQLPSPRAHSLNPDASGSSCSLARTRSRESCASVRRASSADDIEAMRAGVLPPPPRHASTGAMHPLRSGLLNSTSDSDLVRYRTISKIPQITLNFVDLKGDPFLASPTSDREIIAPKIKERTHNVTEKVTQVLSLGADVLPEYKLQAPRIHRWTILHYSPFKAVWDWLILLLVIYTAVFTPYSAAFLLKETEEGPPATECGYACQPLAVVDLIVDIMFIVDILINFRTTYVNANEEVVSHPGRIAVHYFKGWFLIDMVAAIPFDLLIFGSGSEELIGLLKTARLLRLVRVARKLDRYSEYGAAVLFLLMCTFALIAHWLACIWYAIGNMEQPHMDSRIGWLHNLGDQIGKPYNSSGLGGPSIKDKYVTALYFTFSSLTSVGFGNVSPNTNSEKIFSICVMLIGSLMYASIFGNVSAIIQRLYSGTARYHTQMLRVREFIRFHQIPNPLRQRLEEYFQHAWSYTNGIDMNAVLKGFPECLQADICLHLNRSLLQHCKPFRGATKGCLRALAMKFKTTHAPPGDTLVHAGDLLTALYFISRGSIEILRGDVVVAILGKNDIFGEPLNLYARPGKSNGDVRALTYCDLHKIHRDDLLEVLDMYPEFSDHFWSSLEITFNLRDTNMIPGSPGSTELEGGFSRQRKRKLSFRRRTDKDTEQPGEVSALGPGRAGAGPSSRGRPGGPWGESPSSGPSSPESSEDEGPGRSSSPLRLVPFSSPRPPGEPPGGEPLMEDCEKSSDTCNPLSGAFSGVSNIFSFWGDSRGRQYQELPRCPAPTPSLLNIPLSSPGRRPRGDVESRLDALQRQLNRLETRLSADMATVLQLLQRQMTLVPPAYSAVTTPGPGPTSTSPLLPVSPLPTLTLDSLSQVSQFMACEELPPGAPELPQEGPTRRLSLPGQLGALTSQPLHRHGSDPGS

Regarding `CC(C)[C@H]1OC(=O)[C@H](Cc2ccccc2)N(C)C(=O)[C@@H](C(C)C)OC(=O)[C@H](Cc2ccccc2)N(C)C(=O)[C@@H](C(C)C)OC(=O)[C@H](Cc2ccccc2)N(C)C1=O` [BEA, beauvericin], the IC50 was roughly 2550 nM.

What is called IC50 is the concentration that inhibits the measured activity by half. Lower therefore signals greater potency in that assay.
